Results as given in ChEMBL document CHEMBL1914436, “Synthesis and in vivo evaluation of cyclic diaminopropane BACE-1 inhibitors” (Bioorg Med Chem Lett, 2011).
One block for each compound: values may come before it. The source made the active and inactive calls. The calls are words filed in the database; no cut-off is given here.

Tests used:
[1] = biological target: T1, Beta-secretase 1 (Homo sapiens, UniProt P56817); test: Inhibition of BACE-1
[2] = biological target: T1, Beta-secretase 1; test: Inhibition of BACE-1 in human HEK293 cells overexpressing APP 695 swedish mutation assessed as inhibition of amyloid beta (1 to 40) production by immunoprecipitation assay; assay type: cell-based
[3] = biological target: T1, Beta-secretase 1; test: Inhibition of BACE-1 in human HEK293 cells overexpressing APP 695 swedish mutation assessed as inhibition of amyloid beta (1 to 40) production by ELISA method; assay type: cell-based
[4] = biological target: T1, Beta-secretase 1; test: Displacement of [3H]BMS-599240 from recombinant human BACE-1
[5] = system: Rattus norvegicus; test: Antialzheimer activity in rat plasma assessed as reduction in amyloid beta (1 to 40) level at 3 mg/kg, sc relative to vehicle treated control; assay type: functional; parameters: scale not given: the % may be the effect or the level left; details: route subcutaneous
[6] = system: Mus musculus; test: Antialzheimer activity in sc dosed P-gp knockout mouse plasma assessed as reduction in amyloid beta (1 to 40) level after 5 hrs by ELISA; assay type: functional
[7] = Permeability from basolateral to apical side of human Caco2 cells; assay type: ADME, cell-based; details: Caco-2, read-out: permeability
[8] = system: Mus musculus; test: Antialzheimer activity in sc dosed P-gp knockout mouse brain assessed as reduction in amyloid beta (1 to 40) level after 5 hrs by ELISA; assay type: functional
[9] = system: Brain; test: Drug level in rat brain at 100 mg/kg, sc; assay type: ADME, organism-based; parameters: dose 100 mg/kg, route subcutaneous; details: in vivo, read-out: Drug uptake
[10] = system: Rattus norvegicus; test: Antialzheimer activity in rat plasma assessed as amyloid beta (1 to 40) level at 3 mg/kg, sc relative to vehicle treated control; assay type: functional; details: route subcutaneous
[11] = system: Rattus norvegicus; test: Antialzheimer activity in rat plasma assessed as amyloid beta (1 to 40) level at 10 mg/kg, sc relative to vehicle treated control; assay type: functional; details: route subcutaneous
[12] = system: Plasma; test: Total plasma concentration in rat at 100 mg/kg, sc; assay type: ADME, organism-based; parameters: dose 100 mg/kg, route subcutaneous; details: in vivo
[13] = system: Mus musculus; test: Antialzheimer activity in wild type mouse brain assessed as reduction in amyloid beta (1 to 40) level up to 100 mg/kg, sc; assay type: functional, organism-based; parameters: dose 100 mg/kg
[14] = system: Rattus norvegicus; test: Antialzheimer activity in rat plasma assessed as amyloid beta (1 to 40) level at 100 mg/kg, sc relative to vehicle treated control; assay type: functional; details: route subcutaneous
[15] = system: Plasma; test: Total plasma concentration in rat at 10 mg/kg, sc; assay type: ADME, organism-based; parameters: dose 10 mg/kg, route subcutaneous; details: in vivo
[16] = Ratio of drug level in brain to plasma in rat at 3 mg/kg, sc; assay type: ADME, organism-based; parameters: dose 3 mg/kg, route subcutaneous; details: brain and plasma, read-out: BPR
[17] = system: Brain; test: Drug level in rat brain at 3 mg/kg, sc; assay type: ADME, organism-based; parameters: dose 3 mg/kg, route subcutaneous; details: in vivo, read-out: Drug uptake
[18] = system: Rattus norvegicus; test: Antialzheimer activity in rat brain assessed as amyloid beta (1 to 40) level at 3 mg/kg, sc relative to vehicle treated control; assay type: functional; details: route subcutaneous
[19] = Ratio of drug level in brain to plasma in rat at 10 mg/kg, sc; assay type: ADME, organism-based; parameters: dose 10 mg/kg, route subcutaneous; details: brain and plasma, read-out: BPR
[20] = Efflux ratio of permeability from basolateral to apical side to apical to basolateral side of human Caco2 cells; assay type: ADME, cell-based; details: Caco-2
[21] = system: Brain; test: Drug level in rat brain at 10 mg/kg, sc; assay type: ADME, organism-based; parameters: dose 10 mg/kg, route subcutaneous; details: in vivo, read-out: Drug uptake
[22] = Fraction unbound in sc dosed mouse plasma; assay type: ADME, organism-based
[23] = system: Rattus norvegicus; test: Antialzheimer activity in rat brain assessed as amyloid beta (1 to 40) level at 10 mg/kg, sc relative to vehicle treated control; assay type: functional; details: route subcutaneous
[24] = Ratio of drug level in brain to plasma in rat at 100 mg/kg, sc; assay type: ADME, organism-based; parameters: dose 100 mg/kg, route subcutaneous; details: brain and plasma, read-out: BPR
[25] = system: Rattus norvegicus; test: Antialzheimer activity in rat brain assessed as amyloid beta (1 to 40) level at 100 mg/kg, sc relative to vehicle treated control; assay type: functional; details: route subcutaneous
[26] = Permeability from apical to basolateral side of human Caco2 cells; assay type: ADME, cell-based; details: Caco-2, read-out: permeability
[27] = Fraction unbound in sc dosed rat plasma; assay type: ADME, organism-based
[28] = system: Plasma; test: Total plasma concentration in rat at 3 mg/kg, sc; assay type: ADME, organism-based; parameters: dose 3 mg/kg, route subcutaneous; details: in vivo
[29] = system: Plasma; test: Antialzheimer activity in ip dosed rat assessed as reduction in plasma amyloid beta (1 to 40) level measured at 5 hrs post-dose; assay type: functional
[30] = Ratio of drug level in brain to plasma in rat at 100 mg/kg, ip at 5 hrs; assay type: ADME, organism-based; parameters: dose 100 mg/kg, route intraperitoneal; details: brain and plasma, read-out: BPR
[31] = Fraction unbound in rat plasma at 30 mg/kg, ip; assay type: ADME, organism-based; parameters: dose 30 mg/kg, route intraperitoneal
[32] = system: Brain; test: Drug level in rat brain at 100 mg/kg, ip; assay type: ADME, organism-based; parameters: dose 100 mg/kg, route intraperitoneal; details: in vivo, read-out: Drug uptake
[33] = system: Plasma; test: Drug level in rat plasma at 30 mg/kg, ip; assay type: ADME, organism-based; parameters: dose 30 mg/kg, route intraperitoneal; details: in vivo, read-out: Drug uptake
[34] = system: Rattus norvegicus; test: Antialzheimer activity in rat assessed as reduction in brain amyloid beta (1 to 40) level up to 100 mg/kg, ip measured at 5 hrs post-dose; assay type: functional, organism-based; parameters: dose 100 mg/kg

T1 sequence (P56817 whole entry): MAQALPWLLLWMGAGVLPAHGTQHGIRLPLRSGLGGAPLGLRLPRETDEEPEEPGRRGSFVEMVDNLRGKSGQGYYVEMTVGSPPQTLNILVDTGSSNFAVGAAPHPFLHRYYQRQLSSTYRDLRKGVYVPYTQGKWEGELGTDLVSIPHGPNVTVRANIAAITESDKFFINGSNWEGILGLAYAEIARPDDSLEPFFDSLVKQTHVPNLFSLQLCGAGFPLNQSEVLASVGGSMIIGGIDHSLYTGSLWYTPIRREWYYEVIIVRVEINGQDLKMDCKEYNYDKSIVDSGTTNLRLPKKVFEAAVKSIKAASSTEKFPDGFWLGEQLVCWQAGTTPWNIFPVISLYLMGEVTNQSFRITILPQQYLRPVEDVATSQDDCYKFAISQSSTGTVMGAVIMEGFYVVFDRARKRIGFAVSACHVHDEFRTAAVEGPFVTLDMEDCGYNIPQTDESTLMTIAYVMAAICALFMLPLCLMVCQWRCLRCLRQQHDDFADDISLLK

Structure (SMILES): CCCCN(C)C(=O)n1cc(C(=O)N[C@@H](Cc2cc(F)cc(F)c2)[C@H](O)[C@H]2Cc3ccccc3CN2)c2cccnc21
IC50 [1]: 1200 nM

Structure (SMILES): CCCC[C@H]1CCN([C@@H](CCc2ccccc2)C(=O)N[C@@H](Cc2cc(F)cc(F)c2)[C@H](O)[C@H]2Cc3ccccc3CN2)C1=O
IC50 [1]: 1000 nM

Structure (SMILES): CCCN(CCC)C(=O)c1cccc(C(=O)N[C@@H](Cc2cc(F)cc(F)c2)[C@H](O)[C@H]2Cc3ccccc3CN2)c1 (stereo in doubt; 15b)
IC50 [1]: 1600 nM

Structure (SMILES): CCCS[C@H]1CN[C@@H]([C@@H](O)[C@H](Cc2cc(F)cc(F)c2)NC(=O)[C@H](CCc2ccccc2)N2CC[C@](NC(C)=O)(C(C)CC)C2=O)C1 (stereo partly drawn)
IC50 [2]: 15 nM

Structure (SMILES): CCC(C)[C@@]1(NC(C)=O)CCN([C@@H](CCc2ccccc2)C(=O)N[C@@H](Cc2cc(F)cc(F)c2)[C@H](O)C2Cc3cccc(O)c3CN2)C1=O (stereo partly drawn)
IC50 [1]: 870 nM

Structure (SMILES): CCC(C)[C@@]1(NC(C)=O)CCN([C@@H](CCc2ccccc2)C(=O)N[C@@H](Cc2cc(F)cc(F)c2)[C@H](O)[C@H]2C[C@@H](S(=O)(=O)Cc3ccc(F)cc3)CN2)C1=O (stereo partly drawn)
IC50 [2]: 3 nM

Structure (SMILES): CCCC[C@H]1CCN([C@@H](C)C(=O)N[C@@H](Cc2cc(F)cc(F)c2)[C@H](O)[C@H]2Cc3ccccc3CN2)C1=O
IC50 [1]: 1600 nM

Structure (SMILES): CCCS(=O)(=O)[C@@H]1CN[C@@H]([C@@H](O)[C@H](Cc2cc(F)cc(F)c2)NC(=O)[C@H](CCc2ccccc2)N2CC[C@](NC(C)=O)(C(C)CC)C2=O)C1 (stereo partly drawn)
IC50 [2]: 45 nM

Structure (SMILES): CCCC[C@@H]1CCN([C@@H](C)C(=O)N[C@@H](Cc2cc(F)cc(F)c2)[C@H](O)[C@H]2C[C@@H](S(=O)(=O)CCC)CN2)C1=O
IC50 [2]: > 330 nM

Structure (SMILES): CCCS(=O)(=O)[C@H]1CN[C@@H]([C@@H](O)[C@H](Cc2cc(F)cc(F)c2)NC(=O)[C@H](CCc2ccccc2)N2CC[C@](NC(C)=O)(C(C)CC)C2=O)C1 (stereo partly drawn)
Activity [5]: 72%
ED50 [6]: 30 mg/kg
Papp B→A [7]: 5.8 ×10⁻⁶ cm/s
ED50 [8]: 50 mg/kg
concentration [9]: 260 nM
Activity [10]: 28%
IC50 [2]: 5 nM
Activity [11]: 10%
concentration [12]: 5800 nM
Activity [13]: inactive
Activity [14]: 15%
concentration [15]: 740 nM
Kp [16]: 0.32
concentration [17]: 46 nM
Activity [18]: 85%
Kp [19]: 0.11
efflux ratio [20]: > 4
concentration [21]: 78 nM
fraction unbound [22]: 0.24
Activity [23]: 92%
Kp [24]: 0.05
Activity [25]: 91%
Papp A→B [26]: < 1.5 ×10⁻⁶ cm/s
fraction unbound [27]: 0.3
concentration [28]: 160 nM

Structure (SMILES): CCCN(CCC)C(=O)c1cc(C(=O)N[C@@H](Cc2cc(F)cc(F)c2)[C@H](O)[C@H]2C[C@@H](S(=O)(=O)CCC)CN2)cc(-c2ncco2)c1
IC50 [2]: 68 nM

Structure (SMILES): CCCN(CCC)C(=O)c1cccc(C(=O)N[C@@H](Cc2cc(F)cc(F)c2)[C@H](O)[C@H]2Cc3ccccc3CN2)c1 (stereo in doubt; 15a)
IC50 [1]: 1100 nM

Second part, led by results:

IC50 [1]: 141 nM
Structure (SMILES): CCC(C)[C@@]1(N)CCN([C@@H](CCc2ccccc2)C(=O)N[C@@H](CC(C)C)[C@@H](O)C[C@@H](C)C(=O)NCCCCc2ccccc2)C1=O (stereo partly drawn)

IC50 [2]: 140 nM
IC50 [1]: 17 nM
Structure (SMILES): CCCOc1cccc2c1CNC([C@@H](O)[C@H](Cc1cc(F)cc(F)c1)NC(=O)[C@H](CCc1ccccc1)N1CC[C@](NC(C)=O)(C(C)CC)C1=O)C2 (stereo partly drawn)

IC50 [2]: 110 nM
IC50 [1]: 54 nM
Structure (SMILES): CCC(C)[C@@]1(NC(C)=O)CCN([C@@H](CCc2ccccc2)C(=O)N[C@@H](Cc2cc(F)cc(F)c2)[C@H](O)C2Cc3ccccc3CN2)C1=O (stereo partly drawn)

IC50 [2]: 10 nM
IC50 [1]: 8 nM
Structure (SMILES): CC(=O)N[C@]1(CC(C)C)CCN([C@@H](CCc2ccccc2)C(=O)N[C@@H](Cc2cc(F)cc(F)c2)[C@H](O)C2Cc3ccccc3CN2)C1=O (stereo partly drawn)

IC50 [2]: 12 nM
Structure (SMILES): CCC(C)[C@@]1(NC(C)=O)CCN([C@@H](CCc2ccccc2)C(=O)N[C@@H](Cc2cc(F)cc(F)c2)[C@H](O)[C@H]2C[C@@H](S(=O)(=O)c3ccccc3)CN2)C1=O (stereo partly drawn)

IC50 [1]: 88 nM
Structure (SMILES): CC[C@@H](C)[C@H](N)C(=O)N[C@@H](CCc1ccccc1)C(=O)N[C@@H](CC(C)C)[C@@H](O)C[C@@H](C)C(=O)NCCCCc1ccccc1

IC50 [3]: 11 nM
IC50 [4]: 5 nM
Structure (SMILES): CCC(C)[C@@]1(NC(C)=O)CCN([C@@H](CCc2ccccc2)C(=O)N[C@@H](Cc2ccccc2)[C@H](O)CNCc2cccc(OC)c2)C1=O (stereo partly drawn)

IC50 [1]: 140 nM
Structure (SMILES): CCC(C)[C@@]1(NC(C)=O)CCN([C@@H](CCc2ccccc2)C(=O)N[C@@H](Cc2cc(F)cc(F)c2)[C@H](O)[C@@H]2Cc3cccc(OC)c3CN2)C1=O (stereo partly drawn)

IC50 [2]: 20 nM
IC50 [1]: 4 nM
Structure (SMILES): CCC(C)[C@@]1(NC(C)=O)CCN([C@@H](CCc2ccccc2)C(=O)N[C@@H](Cc2cc(F)cc(F)c2)[C@H](O)C2Cc3cccc(OC)c3CN2)C1=O (stereo partly drawn)

IC50 [1]: 600 nM
Structure (SMILES): CCC(C)[C@@]1(NC(C)=O)CCN([C@@H](CCc2ccccc2)C(=O)N[C@@H](Cc2cc(F)cc(F)c2)[C@H](O)[C@@H]2Cc3ccccc3CN2)C1=O (stereo partly drawn)

Papp B→A [7]: 11.4 ×10⁻⁶ cm/s
Kp at 5 h [30]: < 0.05
IC50 [3]: 3 nM
fraction unbound [31]: 0.011
concentration [32]: 113 nM
concentration [33]: 3700 nM
efflux ratio [20]: 1.5
IC50 [4]: 2 nM
Papp A→B [26]: 7.5 ×10⁻⁶ cm/s
Structure (SMILES): CCC(C)[C@@]1(NC(C)=O)CCN([C@@H](CCc2ccccc2)C(=O)N[C@@H](Cc2cc(F)cc(F)c2)[C@H](O)CNCc2cccc(OC)c2)C1=O (stereo partly drawn)
Activity [29]: Dose-dependent effect
ED50 [29]: 30 mg/kg
Activity [34]: inactive
